Key:
Bruton's Tyrosine Kinase = Bruton's Tyrosine Kinase (Homo sapiens, UniProt Q06187); assay: Bruton's Tyrosine Kinase (BTK) Inhibition TR-FRET competition assay; assay type: binding; conditions: inactivated state of BTK; Kinase Tracer 178; 18-24 h at 14° C
Procedure: This BTK competition assay measures compound potency (IC50) for the inactivated state of Bruton's Tyrosine Kinase using FRET (Forster/Fluorescence Resonance Energy Transfer) technology. The BTK-Eu complex was incubated on ice one hour prior to use at a starting concentration of 50 nM BTK-Bioease™: 10 nM Eu-streptavidin (Perkin-Elmer Catalog# AD0062). The assay buffer consisted of 20 mM HEPES (pH 7.15), 0.1 mM DTT, 10 mM MgCl2, 0.5 mg/ml BSA with 3% Kinase Stabilizer (Fremont Biosolutions, Catalog # STB-K02). After 1 h, the reaction mixture from above was diluted 10 fold in assay buffer to make 5 nM BTK: 1 nM Eu-Streptavidin complex (donor fluorophore). […] of a mixture of 0.11 nM BTK-Eu and 0.11 nM Kinase Tracer 178 (Invitrogen, Catalog # PV5593,) with BTK-Eu alone as no negative control, was then dispensed into 384-well flat bottom plates (Greiner, 784076). Compounds to be tested in assay were prepared as 10× concentrations and serial dilution in half-log increments was performed in DMSO so as to generate 10 point curves. To initiate the FRET reaction, compounds prepared as 10× stock in DMSO was added to the plates and the plates were incubated 18-24 h at 14° C.
After the incubation the plates were read on a BMG Pherastar Fluorescent plate reader (or equivalent) and used to measure the emission energy from the europium donor fluorophore (620 nm emission) and the FRET (665 nm emission). The negative control well values were averaged to obtain the mean minimum. The positive “no inhibitor” control wells were averaged to obtain the mean maximum. Percent of maximal FRET was calculated using following equation:
% max FRET=100×[(FSRcmpd−FSRmean min)/(FSRmean max−FSRmean min)]
where FSR=FRET Signal ratio. % Max FRET curves were plotted in Activity Base (Excel) and the IC50(%), hill slope, z′ and % CV were determined. The mean IC50 and standard deviation will be derived from duplicate curves (singlet inhibition curves from two independent dilutions) using Microsoft Excel.

B cells in human blood = assay: Inhibition of B cell activation in whole blood measured by CD69 expression; assay type: cell-based; conditions: anti-IgM stimulation, 20 hours, CD69-positive cells that are also CD20-positive, read-out: HWB IC50
Procedure: A procedure to test the ability of Btk inhibitors to suppress B cell receptor-mediated activation of B cells in human blood is as follows:
Human whole blood (HWB) is obtained from healthy volunteers, with the following restrictions: 24 hr drug-free, non-smokers. Blood is collected by venipuncture into Vacutainer tubes anticoagulated with sodium heparin. Test compounds are diluted to ten times the desired starting drug concentration in PBS (20×), followed by three-fold serial dilutions in 10% DMSO in PBS to produce a nine point dose-response curve. 5.5 μl of each compound dilution is added in duplicate to a 2 ml 96-well V bottom plate (Analytical Sales and Services, #59623-23); 5.5 μl of 10% DMSO in PBS is added to control and no-stimulus wells. HWB (100 μl) is added to each well, and after mixing the plates are incubated at 37 C, 5% CO2, 100% humidity for 30 minutes. Goat F(ab′)2 anti-human IgM (Southern Biotech, #2022-14) (10 μl of a 500 μg/ml solution, 50 μg/ml final concentration) is added to each well (except the no-stimulus wells) with mixing and the plates are incubated for an additional 20 hours.
At the end of the 20 hour incubation, samples are incubated with florescent-probe-labeled anti-bodies (15 μl PE Mouse anti-Human CD20, BD Pharmingen, #555623, and/or 20 ul APC Mouse anti-Human CD69, BD Pharmingen #555533) for 30 minutes, at 37 C, 5% CO2, 100% humidity. Included are induced control, unstained and single stains for compensation adjustments and initial voltage settings. Samples are then lysed with 1 ml of 1× Pharmingen Lyse Buffer (BD Pharmingen #555899), and plates are centrifuged at 1800 rpm for 5 minutes. Supernatants are removed via suction and the remaining pellets are lysed again with another 1 ml of 1× Pharmingen Lyse Buffer, and plates are spun down as before. Supernatants are aspirated and remaining pellets are washed in FACs buffer (PBS+1% FBS). After a final spin, the supernantants are removed and pellets are resuspended in 180 μl of FACs buffer. Samples are transferred to a 96 well plate suitable to be run on the HTS 96 well system on the BD LSR II flow cytometer.
Using appropriate excitation and emission wavelengths for the fluorophores used, data are acquired and percent positive cell values are obtained using Cell Quest Software. Results are initially analyzed by FACS analysis software (Flow Jo). […] The IC50 values are calculated using XLfit software version 3, equation 201.

Chain of Bruton's Tyrosine Kinase (Q06187 whole entry): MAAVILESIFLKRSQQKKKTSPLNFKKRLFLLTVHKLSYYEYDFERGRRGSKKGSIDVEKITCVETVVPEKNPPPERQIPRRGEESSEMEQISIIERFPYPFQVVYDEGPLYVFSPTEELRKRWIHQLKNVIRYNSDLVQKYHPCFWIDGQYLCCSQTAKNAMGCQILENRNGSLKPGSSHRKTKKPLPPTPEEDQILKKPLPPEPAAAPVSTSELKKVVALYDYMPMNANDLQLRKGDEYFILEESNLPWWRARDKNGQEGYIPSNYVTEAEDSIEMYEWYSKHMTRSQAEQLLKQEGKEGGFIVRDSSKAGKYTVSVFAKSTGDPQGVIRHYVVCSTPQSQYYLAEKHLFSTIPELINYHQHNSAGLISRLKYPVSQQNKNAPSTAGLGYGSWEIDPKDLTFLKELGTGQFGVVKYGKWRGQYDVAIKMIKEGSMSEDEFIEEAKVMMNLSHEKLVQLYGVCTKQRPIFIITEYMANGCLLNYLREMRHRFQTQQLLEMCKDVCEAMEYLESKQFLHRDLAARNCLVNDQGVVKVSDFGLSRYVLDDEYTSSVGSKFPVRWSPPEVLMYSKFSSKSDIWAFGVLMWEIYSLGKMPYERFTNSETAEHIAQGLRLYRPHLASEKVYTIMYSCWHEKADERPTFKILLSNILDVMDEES

IC50 (Bruton's Tyrosine Kinase)	IC50 (B cells in human blood)	Compound
1 nM	> 50000 nM	CC(C)(C)c1ccc(C(=O)NCc2ccc(-c3ncnc4[nH]c(-c5cnn(CC(=O)O)c5)cc34)cc2F)cc1 [Compound I-46, [4-(4-{4-[(4-tert-Butyl-benzoylamino)-methyl]-3-fluoro-phenyl}-7H-pyrrolo[2,3-d]pyrimidin-6-yl)-pyrazol-1-yl]-acetic acid]
98 nM	16200 nM	CNC(=O)c1cc2c(-c3ccc(CNC(=O)c4ccc(C(C)(C)C)cc4)c(F)c3)ncnc2[nH]1 [Compound I-17, 4-{4-[(4-tert-Butyl-benzoylamino)-methyl]-3-fluoro-phenyl}-7H-pyrrolo[2,3-d]pyrimidine-6-carboxylic acid methylamide]
20 nM	6050 nM	CN(Cc1ccc(-c2ncnc3[nH]c(-c4cnn(C)c4)cc23)cc1F)C(=O)c1ccc(C(C)(C)C)cc1 [Compound I-31, 4-tert-Butyl-N-{2-fluoro-4-[6-(1-methyl-1H-pyrazol-4-yl)-7H-pyrrolo[2,3-d]pyrimidin-4-yl]-benzyl}-N-methyl-benzamide]
2 nM	812 nM	Cn1cc(-c2cc3c(-c4ccc(CNC(=O)c5ccc(C(C)(C)C)cc5)c(F)c4)ncnc3[nH]2)cn1 [Compound I-27, 4-tert-Butyl-N-{2-fluoro-4-[6-(1-methyl-1H-pyrazol-4-yl)-7H-pyrrolo[2,3-d]pyrimidin-4-yl]-benzyl}-benzamide]
0.6 nM	222 nM	CCOC(=O)Cn1cc(-c2cc3c(-c4ccc(CNC(=O)c5ccc(C(C)(C)C)cc5)c(F)c4)ncnc3[nH]2)cn1 [Compound I-45, [4-(4-{4-[(4-tert-Butyl-benzoylamino)-methyl]-3-fluoro-phenyl}-7H-pyrrolo[2,3-d]pyrimidin-6-yl)-pyrazol-1-yl]-acetic acid ethyl ester]

Continued, compound first:

Compound	IC50 (Bruton's Tyrosine Kinase)	IC50 (B cells in human blood)
Cc1ccc(C(=O)NCc2ccc(-c3ncnc4[nH]c(-c5cnn(C)c5)cc34)cc2F)s1 [Compound I-29, 5-Methyl-thiophene-2-carboxylic acid 2-fluoro-4-[6-(1-methyl-1H-pyrazol-4-yl)-7H-pyrrolo[2,3-d]pyrimidin-4-yl]-benzylamide]	3 nM	470 nM
Cn1cc(-c2cc3c(-c4ccc(CNC(=O)c5cc(C(C)(C)C)on5)c(F)c4)ncnc3[nH]2)cn1 [Compound I-34, 5-tert-Butyl-isoxazole-3-carboxylic acid 2-fluoro-4-[6-(1-methyl-1H-pyrazol-4-yl)-7H-pyrrolo[2,3-d]pyrimidin-4-yl]-benzylamide]	0.2 nM	76 nM
CN(C)CCn1cc(-c2cc3c(-c4ccc(CNC(=O)N5Cc6ccccc6C5)c(F)c4)ncnc3[nH]2)cn1 [Compound I-44, 1,3-Dihydro-isoindole-2-carboxylic acid 4-{6-[1-(2-dimethylamino-ethyl)-1H-pyrazol-4-yl]-7H-pyrrolo[2,3-d]pyrimidin-4-yl}-2-fluoro-benzylamide]	0.52 nM	188 nM
CN(C)CCn1cc(-c2cc3c(-c4ccc(CNC(=O)N5CC(OC(C)(C)C)C5)c(F)c4)ncnc3[nH]2)cn1 [Compound I-43, 3-tert-Butoxy-azetidine-1-carboxylic acid 4-{6-[1-(2-dimethylamino-ethyl)-1H-pyrazol-4-yl]-7H-pyrrolo[2,3-d]pyrimidin-4-yl}-2-fluoro-benzylamide]	0.6 nM	276 nM
Cn1cc(-c2cc3c(-c4ccc(CNC(=O)c5cc6c(s5)CCCC6)cc4)ncnc3[nH]2)cn1 [Compound I-26, 4,5,6,7-Tetrahydro-benzo[b]thiophene-2-carboxylic acid 4-[6-(1-methyl-1H-pyrazol-4-yl)-7H-pyrrolo[2,3-d]pyrimidin-4-yl]-benzylamide]	1 nM	608 nM
Cn1cc(-c2cc3c(-c4ccc(CNC(=O)N5CC(OC(C)(C)C)C5)c(F)c4)ncnc3[nH]2)cn1 [Compound I-40, 3-tert-Butoxy-azetidine-1-carboxylic acid 2-fluoro-4-[6-(1-methyl-1H-pyrazol-4-yl)-7H-pyrrolo[2,3-d]pyrimidin-4-yl]-benzylamide]	0.6 nM	52 nM
Cn1cc(-c2cc3c(-c4ccc(CNC(=O)c5ccc(C6(C)COC6)cc5)c(F)c4)ncnc3[nH]2)cn1 [Compound I-35, N-{2-Fluoro-4-[6-(1-methyl-1H-pyrazol-4-yl)-7H-pyrrolo[2,3-d]pyrimidin-4-yl]-benzyl}-4-(3-methyl-oxetan-3-yl)-benzamide]	8 nM	5500 nM
Cn1cc(-c2cc3c(-c4ccc(CNC(=O)c5ccc(C(C)(C)C)nc5)c(F)c4)ncnc3[nH]2)cn1 [Compound I-28, 6-tert-Butyl-N-{2-fluoro-4-[6-(1-methyl-1H-pyrazol-4-yl)-7H-pyrrolo[2,3-d]pyrimidin-4-yl]-benzyl}-nicotinamide]	4 nM	2540 nM
Cn1cc(-c2cc3c(-c4ccc(CNC(=O)c5ccc(C(C)(C)C)cc5)cc4)ncnc3[nH]2)cn1 [Compound I-21, 4-tert-Butyl-N-{4-[6-(1-methyl-1H-pyrazol-4-yl)-7H-pyrrolo[2,3-d]pyrimidin-4-yl]-benzyl}-benzamide]	7 nM	1400 nM

— US20150284394A1, “INHIBITORS OF BRUTON'S TYROSINE KINASE” (HOFFMANN-LA ROCHE INC., priority 2012, published 2015)
